Assay results from patent US5525626A (priority 1989, dated 1996).
Where two headings read alike, the source gives them in different places.

Legend:
Type in all cases: cell-based
[1] = tested on: GV-1 prostate carcinoma cells; assay: 3H-thymidine assay; settings: for activity at 1 µM / activity at 2 µM / activity at 4 µM / activity at 8 µM / activity at 16 µM / activity at 25 µM / activity at 50 µM / activity at 100 µM / activity at 250 µM / activity at 500 µM: read-out: 3H-thymidine tracer (%) of control; for IC50: read-out: active substance concentration at which 3H-thymidine insertion was 50% inhibited
HCV cells = assay: 3H-thymidine assay; settings: for activity at 1 µM / activity at 2 µM / activity at 4 µM / activity at 8 µM / activity at 16 µM / activity at 25 µM / activity at 50 µM / activity at 250 µM / activity at 500 µM: read-out: 3H-thymidine tracer (%) of control; for IC50: read-out: active substance concentration at which 3H-thymidine insertion was 50% inhibited
G-361 melanoma cells = assay: 3H-thymidine assay; settings: Homo sapiens
CAKI-2 cells = assay: 3H-thymidine assay; settings: Homo sapiens
Experimental: The cell lines were cultivated as indicated in Example 1.
The antiproliferative effect of the 1,2-benzopyrone derivatives according to the invention on the tumor cell lines in each case was shown with the help of the ^3 H-thymidine insertion and with reference to growth curves.
In a 24-well-plate, in each case 10^4 cells of the line to be investigated were inoculated per well. Approximately 48 hours later the cells were half-confluent; the medium was then changed and replaced by a medium containing the active substance in question (cf Table 3). […] Subsequently the cultures were washed twice with ice-cold PBS and the high-molecular-weight ^3 H-radioactivity was precipitated with 5% trichloroacetic acid for one hour at 4° C. After the washing of the cells in PBS the ^3 H-radioactivity was solubilized with 0.3M NaOH and measured in the counter. The growth-inhibition was determined by comparing the thymidine insertion of the cells treated with active substance with untreated cells.
The active substance concentration in each case was so chosen that ^3 H-thymidine insertion was 50% inhibited. The active substance concentrations used under this aspect for the active substances and cell lines in each case are given in table 4 below in μM/ml, […]

[2] = tested on: brain-tumor cells (glioblastoma cells); assay: growth inhibition of brain-tumor cells; settings: Tables 1 to 3
[3] = G-361, 1 μM/ml, read-out: 3H-thymidine tracer (%) of control
[4] = G-361, 2 μM/ml, read-out: 3H-thymidine tracer (%) of control
[5] = G-361, 4 μM/ml, read-out: 3H-thymidine tracer (%) of control
[6] = G-361, 8 μM/ml, read-out: 3H-thymidine tracer (%) of control
[7] = G-361, 25 μM/ml, read-out: 3H-thymidine tracer (%) of control
[8] = G-361, 50 μM/ml, read-out: 3H-thymidine tracer (%) of control
[9] = G-361, 100 μM/ml, read-out: 3H-thymidine tracer (%) of control
[10] = G-361, 250 μM/ml, read-out: 3H-thymidine tracer (%) of control
[11] = G-361, 500 μM/ml, read-out: 3H-thymidine tracer (%) of control
[12] = G-361, Table 4, *: maximum usable dosage, no 50% inhibition, read-out: active substance concentration at which 3H-thymidine insertion was 50% inhibited
[13] = CAKI-2, 1 μM/ml, read-out: 3H-thymidine tracer (%) of control
[14] = CAKI-2, 2 μM/ml, read-out: 3H-thymidine tracer (%) of control
[15] = CAKI-2, 4 μM/ml, read-out: 3H-thymidine tracer (%) of control
[16] = CAKI-2, 8 μM/ml, read-out: 3H-thymidine tracer (%) of control
[17] = CAKI-2, 16 μM/ml, read-out: 3H-thymidine tracer (%) of control
[18] = CAKI-2, 25 μM/ml, read-out: 3H-thymidine tracer (%) of control
[19] = CAKI-2, 50 μM/ml, read-out: 3H-thymidine tracer (%) of control
[20] = CAKI-2, 100 μM/ml, read-out: 3H-thymidine tracer (%) of control
[21] = CAKI-2, 150 μM/ml, read-out: 3H-thymidine tracer (%) of control
[22] = CAKI-2, 500 μM/ml, read-out: 3H-thymidine tracer (%) of control
[23] = CAKI-2, Table 4, *: maximum usable dosage, no 50% inhibition, read-out: active substance concentration at which 3H-thymidine insertion was 50% inhibited
[24] = G-361, read-out: 3H-thymidine tracer (%) of control
[25] = CAKI-2, read-out: 3H-thymidine tracer (%) of control

SMILES: O=c1ccc2cc(O)c(O)cc2o1 [Esculetin, 6,7-hydroxy-1,2-benzopyrone]
- activity at 1 µM ([1]; 1 μM/ml): 97%
- activity at 2 µM ([1]; 2 μM/ml): 93%
- activity at 4 µM ([1]; 4 μM/ml): 88%
- activity at 8 µM ([1]; 8 μM/ml): 84%
- activity at 16 µM ([1]; 16 μM/ml): 78%
- activity at 25 µM ([1]; 25 μM/ml): 75%
- activity at 50 µM ([1]; 50 μM/ml): 63%
- activity at 100 µM ([1]; 100 μM/ml): 60%
- activity at 250 µM ([1]; 250 μM/ml): 58%
- activity at 500 µM ([1]; 500 μM/ml): 50%
- IC50 ([1]; Table 4): 500 µM
- activity at 1 µM (HCV cells): 99%
- activity at 2 µM (HCV cells): 94%
- activity at 4 µM (HCV cells): 87%
- activity at 8 µM (HCV cells): 83%
- activity at 16 µM (HCV cells): 78%
- activity at 25 µM (HCV cells): 76%
- activity at 50 µM (HCV cells): 71%
- activity at 250 µM (HCV cells): 64%
- activity at 500 µM (HCV cells): 62%
- IC50 (HCV cells): > 500 µM
- activity at 1 µM (G-361 melanoma cells; [3]): 97%
- activity at 2 µM (G-361 melanoma cells; [4]): 93%
- activity at 4 µM (G-361 melanoma cells; [5]): 90%
- activity at 8 µM (G-361 melanoma cells; [6]): 88%
- activity at 16 µM (G-361 melanoma cells; G-361, 16 μM/ml, read-out: 3H-thymidine tracer (%) of control): 72%
- activity at 25 µM (G-361 melanoma cells; [7]): 68%
- activity at 50 µM (G-361 melanoma cells; [8]): 60%
- activity at 100 µM (G-361 melanoma cells; [9]): 58%
- activity at 250 µM (G-361 melanoma cells; [10]): 52%
- activity at 500 µM (G-361 melanoma cells; [11]): 49%
- IC50 (G-361 melanoma cells; [12]): 500 µM
- activity at 1 µM (CAKI-2 cells; [13]): 98%
- activity at 2 µM (CAKI-2 cells; [14]): 94%
- activity at 4 µM (CAKI-2 cells; [15]): 90%
- activity at 8 µM (CAKI-2 cells; [16]): 87%
- activity at 16 µM (CAKI-2 cells; [17]): 82%
- activity at 25 µM (CAKI-2 cells; [18]): 69%
- activity at 50 µM (CAKI-2 cells; [19]): 65%
- activity at 100 µM (CAKI-2 cells; [20]): 54%
- activity at 150 µM (CAKI-2 cells; [21]): 53%
- activity at 500 µM (CAKI-2 cells; [22]): 50%
- IC50 (CAKI-2 cells; [23]): 500 µM
- growth-inhibiting effect on brain-tumor cells [2]: strong growth-inhibiting effect on brain-tumor cells

SMILES: O=c1ccc2cc(O[C@@H]3O[C@H](CO)[C@@H](O)[C@H](O)[C@H]3O)c(O)cc2o1 [Esculin, 6-beta-D-glucopyranosyloxy-7-hydroxy-1,2-benzopyrone]
- activity at 1 µM [1]: 97%
- activity at 2 µM [1]: 95%
- activity at 4 µM [1]: 85%
- activity at 8 µM [1]: 84%
- activity at 16 µM [1]: 79%
- activity at 25 µM [1]: 76%
- activity at 50 µM [1]: 68%
- activity at 100 µM [1]: 60%
- activity at 250 µM [1]: 51%
- activity at 500 µM [1]: 43%
- IC50 [1]: 250 µM
- activity at 1 µM (HCV cells): 100%
- activity at 2 µM (HCV cells): 98%
- activity at 4 µM (HCV cells): 95%
- activity at 8 µM (HCV cells): 89%
- activity at 16 µM (HCV cells): 86%
- activity at 25 µM (HCV cells): 83%
- activity at 50 µM (HCV cells): 79%
- activity at 250 µM (HCV cells): 76%
- activity at 500 µM (HCV cells): 75%
- IC50 (HCV cells): > 500 µM
- activity at 1 µM (G-361 melanoma cells; [24]): 98%
- activity at 2 µM (G-361 melanoma cells; [24]): 94%
- activity at 4 µM (G-361 melanoma cells; [24]): 90%
- activity at 8 µM (G-361 melanoma cells; [24]): 86%
- activity at 16 µM (G-361 melanoma cells; [24]): 81%
- activity at 25 µM (G-361 melanoma cells; [24]): 74%
- activity at 50 µM (G-361 melanoma cells; [24]): 70%
- activity at 100 µM (G-361 melanoma cells; [24]): 63%
- activity at 250 µM (G-361 melanoma cells; [24]): 60%
- activity at 500 µM (G-361 melanoma cells; [24]): 54%
- IC50 (G-361 melanoma cells; G-361, read-out: active substance concentration at which 3H-thymidine insertion was 50% inhibited): > 500 µM
- activity at 1 µM (CAKI-2 cells; [25]): 99%
- activity at 2 µM (CAKI-2 cells; [25]): 96%
- activity at 4 µM (CAKI-2 cells; [25]): 90%
- activity at 8 µM (CAKI-2 cells; [25]): 84%
- activity at 16 µM (CAKI-2 cells; [25]): 73%
- activity at 25 µM (CAKI-2 cells; [25]): 72%
- activity at 50 µM (CAKI-2 cells; [25]): 66%
- activity at 100 µM (CAKI-2 cells; [25]): 50%
- activity at 150 µM (CAKI-2 cells; [25]): 56%
- activity at 500 µM (CAKI-2 cells; [25]): 52%
- IC50 (CAKI-2 cells; CAKI-2, read-out: active substance concentration at which 3H-thymidine insertion was 50% inhibited): > 500 µM

SMILES: COc1cc2ccc(=O)oc2cc1O [Scopoletin, 6-methoxy-7-hydroxy-1,2-benzopyrone]
- activity at 1 µM ([1]; 1 μM/ml): 100%
- activity at 2 µM ([1]; 2 μM/ml): 98%
- activity at 4 µM ([1]; 4 μM/ml): 91%
- activity at 8 µM ([1]; 8 μM/ml): 88%
- activity at 16 µM ([1]; 16 μM/ml): 82%
- activity at 25 µM ([1]; 25 μM/ml): 78%
- activity at 50 µM ([1]; 50 μM/ml): 71%
- activity at 100 µM ([1]; 100 μM/ml): 63%
- activity at 250 µM ([1]; 250 μM/ml): 61%
- activity at 500 µM ([1]; 500 μM/ml): 51%
- IC50 ([1]; Table 4): 500 µM
- activity at 1 µM (HCV cells; 1 μM/ml): 97%
- activity at 2 µM (HCV cells; 2 μM/ml): 90%
- activity at 4 µM (HCV cells; 4 μM/ml): 86%
- activity at 8 µM (HCV cells; 8 μM/ml): 81%
- activity at 16 µM (HCV cells; 16 μM/ml): 77%
- activity at 25 µM (HCV cells; 25 μM/ml): 69%
- activity at 50 µM (HCV cells; 50 μM/ml): 65%
- activity at 250 µM (HCV cells; 250 μM/ml): 60%
- activity at 500 µM (HCV cells; 500 μM/ml): 57%
- IC50 (HCV cells; Table 4, *: maximum usable dosage, no 50% inhibition): > 500 µM
- activity at 1 µM (G-361 melanoma cells; [3]): 100%
- activity at 2 µM (G-361 melanoma cells; [4]): 98%
- activity at 4 µM (G-361 melanoma cells; [5]): 96%
- activity at 8 µM (G-361 melanoma cells; [6]): 88%
- activity at 25 µM (G-361 melanoma cells; [7]): 85%
- activity at 50 µM (G-361 melanoma cells; [8]): 85%
- activity at 100 µM (G-361 melanoma cells; [9]): 76%
- activity at 250 µM (G-361 melanoma cells; [10]): 71%
- activity at 500 µM (G-361 melanoma cells; [11]): 67%
- IC50 (G-361 melanoma cells; [12]): > 500 µM
- activity at 1 µM (CAKI-2 cells; [13]): 99%
- activity at 2 µM (CAKI-2 cells; [14]): 96%
- activity at 4 µM (CAKI-2 cells; [15]): 84%
- activity at 8 µM (CAKI-2 cells; [16]): 80%
- activity at 16 µM (CAKI-2 cells; [17]): 76%
- activity at 25 µM (CAKI-2 cells; [18]): 71%
- activity at 50 µM (CAKI-2 cells; [19]): 66%
- activity at 100 µM (CAKI-2 cells; [20]): 61%
- activity at 150 µM (CAKI-2 cells; [21]): 59%
- activity at 500 µM (CAKI-2 cells; [22]): 53%
- IC50 (CAKI-2 cells; [23]): > 500 µM
